Measurements as given in patent US20200247897A1, “THERAPEUTIC ANTIBODIES BASED ON MUTATED IGG HEXAMERS” (GENMAB B.V., priority 2017, published 2020).
Like-named read-outs stand apart in the source and are kept apart here.

Key:
DLD-1 = assay: Drug combination screen (ATPlite, Synergy Score), DLD-1
SW480 = assay: Drug combination screen (ATPlite, Synergy Score), SW480; type: cell-based, human
SNU-C2B = assay: Drug combination screen (ATPlite, Synergy Score), SNU-C2B
HCT 116 = assay: Drug combination screen (ATPlite, Synergy Score), HCT 116
LS-411N = assay: Drug combination screen (ATPlite, Synergy Score), LS-411N; type: cell-based, human
[1] = compound in combination with IgG1-hDR5-01-G56T-E430G + IgG1-hDR5-05-E430G, DLD-1, 120 hour ATPlite, 6x6 matrix
[2] = compound in combination with IgG1-hDR5-01-G56T-E430G + IgG1-hDR5-05-E430G, SW480, 72 hour ATPlite, 6x6 matrix
[3] = compound in combination with IgG1-hDR5-01-G56T-E430G + IgG1-hDR5-05-E430G, SNU-C2B, 72 hour ATPlite, 6x6 matrix
[4] = compound in combination with IgG1-hDR5-01-G56T-E430G + IgG1-hDR5-05-E430G, HCT 116, 120 hour ATPlite, 6x6 matrix
[5] = compound in combination with IgG1-hDR5-01-G56T-E430G + IgG1-hDR5-05-E430G, LS-411N, 72 hour ATPlite, 6x6 matrix

Row | Compound | Synergy Score DLD-1 (DLD-1; [1]) | Synergy Score SW480 (SW480; [2]) | Synergy Score SNU-C2B (SNU-C2B; [3]) | Synergy Score HCT-116 (HCT 116; [4]) | Synergy Score LS-411N (LS-411N; [5]) | Synergy Score DLD-1 (DLD-1) | Synergy Score SW480 (SW480) | Synergy Score SNU-C2B (SNU-C2B) | Synergy Score HCT-116 (HCT 116) | Synergy Score LS-411N (LS-411N)
1 | O=C(CCCCCCC(=O)Nc1ccccc1)NO | 4.4 | 7.3 | 11 | 2.5 | 4.4 | – | – | – | – | –
2 | CC[C@@]1(O)C(=O)OCc2c1cc1n(c2=O)Cc2cc3cc(O)ccc3nc2-1 [10-Hydroxycamptothecin] | – | – | – | – | – | 21.9 | 30.1 | 12.4 | 9.6 | 16.9
3 | CC1(C)CCC(CN2CCN(c3ccc(C(=O)NS(=O)(=O)c4ccc(NCC5CCOCC5)c([N+](=O)[O-])c4)c(Oc4cnc5[nH]ccc5c4)c3)CC2)=C(c2ccc(Cl)cc2)C1 [ABT-199] | 0 | 0 | 0 | 0 | 0.1 | – | – | – | – | –
4 | CC1(C)CCC(c2ccc(Cl)cc2)=C(CN2CCN(c3ccc(C(=O)NS(=O)(=O)c4ccc(N[C@H](CCN5CCOCC5)CSc5ccccc5)c(S(=O)(=O)C(F)(F)F)c4)cc3)CC2)C1 [ABT-263] | 3.4 | 8 | 1 | 0 | 7.6 | – | – | – | – | –
5 | CN(C)CC[C@H](CSc1ccccc1)Nc1ccc(S(=O)(=O)NC(=O)c2ccc(N3CCN(Cc4ccccc4-c4ccc(Cl)cc4)CC3)cc2)cc1[N+](=O)[O-] [ABT-737] | 1.5 | 7.5 | 1.1 | 0 | 4.2 | – | – | – | – | –
6 | C[C@]1(c2nc3c(C(N)=O)cccc3[nH]2)CCCN1 [ABT-888] | – | 0 | 0.1 | – | 0.7 | – | – | – | – | –
7 | Cc1ccc(C(=O)Nc2ccc(CN3CCN(C)CC3)c(C(F)(F)F)c2)cc1C#Cc1cnc2cccnn12 [AP24534] | 4.3 | 3.7 | 1.8 | 1.4 | 2.6 | – | – | – | – | –
8 | C=CC(=O)Nc1ccc2ncnc(Nc3ccc(OCc4cccc(F)c4)c(Cl)c3)c2c1 [AST-1306] | 0.3 | 0.9 | 0.7 | 0.1 | 1.8 | – | – | – | – | –
9 | Cn1cnc2c(F)c(Nc3ccc(Br)cc3Cl)c(C(=O)NOCCO)cc21 [AZD6244] | 1.5 | 11.7 | 0.6 | 2.7 | 0.7 | – | – | – | – | –
10 | COc1ccc(-c2ccc3c(N4CCOC[C@@H]4C)nc(N4CCOC[C@@H]4C)nc3n2)cc1CO [AZD 8055] | 3 | 3.9 | 12.2 | 1.7 | 10 | – | – | – | – | –
11 | Cn1c(=O)n(-c2ccc(C(C)(C)C#N)cc2)c2c3cc(-c4cnc5ccccc5c4)ccc3ncc21 [BEZ235] | 2.4 | 3.2 | 5.4 | 1.4 | 1.1 | – | – | – | – | –
12 | CCN1CCN(c2ccc(Nc3cc(N(C)C(=O)Nc4c(Cl)c(OC)cc(OC)c4Cl)ncn3)cc2)CC1 [BGJ398] | 1 | 1.6 | 0.8 | 0.1 | 1.4 | – | – | – | – | –
13 | C[C@@]1(C(=O)Nc2ccc(F)nc2)CCCN1c1nc(Nc2cc(C3CC3)n[nH]2)c2cccn2n1 [BMS-754807] | 11.3 | 5.9 | 1.3 | 2.1 | 10.8 | – | – | – | – | –
14 | O=C(/C=C/c1cccc(S(=O)(=O)Nc2ccccc2)c1)NO [Belinostat] | 8.6 | 10.2 | 16.4 | 4.1 | 4.5 | – | – | – | – | –
15 | CC[C@H](NC(=O)[C@H](C)NC)C(=O)N1C[C@@H](O)C[C@H]1Cc1c(-c2[nH]c3cc(F)ccc3c2C[C@@H]2C[C@H](O)CN2C(=O)[C@H](CC)NC(=O)[C@H](C)NC)[nH]c2cc(F)ccc12 [Birinapant, reference compound] | 5.8 | 54.5 | 37 | 16.4 | 61.2 | – | – | – | – | –
16 | C[C@@H]1CCN(C(=O)CC#N)C[C@@H]1N(C)c1ncnc2[nH]ccc12 [CP-690550] | 0.1 | 0 | 0.1 | 0 | 0.6 | – | – | – | – | –
17 | N.N.O=C([O-])C1(C(=O)[O-])CCC1.[Pt+2] [Carboplatin] | 11.3 | 19.5 | 11.6 | 5.8 | 12 | – | – | – | – | –
18 | N.N.[Cl][Pt][Cl] [Cisplatin] | 8.8 | 18.9 | 12.9 | 6.7 | 15.4 | – | – | – | – | –
19 | CC1=C(C(=O)Nc2cc3cn[nH]c3cc2F)C(c2ccc(C(F)(F)F)cc2)CC(=O)N1 (centres unmarked) [Compound G5K429286A] | 4.9 | 5.3 | 5.3 | 2.6 | 9.8 | – | – | – | – | –
20 | C[C@@H](Oc1cc(-c2cnn(C3CCNCC3)c2)cnc1N)c1c(Cl)ccc(F)c1Cl [Crizotinib] | 13.4 | 8.9 | 5.4 | 7.7 | – | – | – | – | – | –
21 | CC(C)(C)c1nc(-c2cccc(NS(=O)(=O)c3c(F)cccc3F)c2F)c(-c2ccnc(N)n2)s1 [Dabrafenib] | 2.2 | 3.1 | 0.5 | 0.7 | 0.5 | – | – | – | – | –
22 | C[C@@H]1C[C@H]2[C@@H]3CCC4=CC(=O)C=C[C@]4(C)[C@@]3(F)[C@@H](O)C[C@]2(C)[C@@]1(O)C(=O)CO [Dexamethasone] | 0.1 | 0 | 0.8 | 0 | 0.4 | – | – | – | – | –
23 | COc1cccc2c1C(=O)c1c(O)c3c(c(O)c1C2=O)C[C@@](O)(C(=O)CO)C[C@@H]3O[C@H]1C[C@H](N)[C@H](O)[C@H](C)O1 [Doxorubicin] | 16.2 | 20.5 | 18 | 4.6 | 9.4 | – | – | – | – | –
24 | Cn1cc(C2=C(c3cn(C4CCN(Cc5ccccn5)CC4)c4ccccc34)C(=O)NC2=O)c2ccccc21 [Enzastaurin] | 0.9 | 6.3 | 0.5 | 0.6 | 5.6 | – | – | – | – | –
25 | COc1cccc2c1C(=O)c1c(O)c3c(c(O)c1C2=O)C[C@@](O)(C(=O)CO)C[C@@H]3O[C@H]1C[C@H](N)[C@@H](O)[C@H](C)O1 [Epirubicin] | 15.6 | 17.7 | 15.1 | 4.9 | 5.8 | – | – | – | – | –
26 | TW-37 | – | 10.5 | – | 5.4 | 29.9 | – | – | – | – | –
